Columns and labels:
Format in all cases: in vivo
[1] = system: Diamond Back Moth (Plutella xylostella); experiment: Action on diamond back moth (Plutella xylostella), cabbage leaf dip; settings: foliar, 3rd instar larvae on dipped cabbage leaves, 72 hours after treatment, read-out: mortality in comparison with untreated controls
Procedure: The active compound is dissolved at the desired concentration in a mixture of 1:1 (vol:vol) distilled water:acetone. Surfactant (Kinetic® HV) is added at a rate of 0.01% (vol/vol).The test solution is prepared at the day of use.
Leaves of cabbage were dipped in test solution and air-dried. Treated leaves were placed in petri dishes lined with moist filter paper and inoculated with ten 3rd instar larvae. Mortality was recorded 72 hours after treatment. Feeding damages were also recorded using a scale of 0-100%.

[2] = system: Orchid thrips (Dichromothrips corbetti); experiment: Action on orchid thrips (Dichromothrips corbetti), floral-immersion technique; settings: adult thrips, mortality 72 hours after treatment, read-out: mortality in comparison with untreated controls
Procedure: Dichromothrips corbetti adults used for bioassay were obtained from a colony maintained continuously under laboratory conditions. For testing purposes, the test compound is diluted in a 1:1 mixture of acetone:water (vol:vol), plus Kinetic® HV at a rate of 0.01% v/v.
Thrips potency of each compound was evaluated by using a floral-immersion technique. All petals of individual, intact orchid flowers were dipped into treatment solution and allowed to dry in Petri dishes. Treated petals were placed into individual re-sealable plastic along with about 20 adult thrips. All test arenas were held under continuous light and a temperature of about 28° C. for duration of the assay. After 3 days, the numbers of live thrips were counted on each petal. The percent mortality was recorded 72 hours after treatment.

[3] = system: yellow fever mosquito (Aedes aegypti); experiment: whole plant or invertebrate; settings: 48 h, larval mortality visually assessed after 2 days, read-out: mortality in comparison with untreated controls
Procedure: For evaluating control of yellow fever mosquito (Aedes aegypti) the test unit consisted of 96-well-microtiter plates containing 200 μl of tap water per well and 5-15 freshly hatched A. aegypti larvae.
The active compounds were formulated using a solution containing 75% (v/v) water and 25% (v/v) DMSO. Different concentrations of formulated compounds or mixtures were sprayed onto the insect diet at 2.5 μl, using a custom built micro atomizer, at two replications.
After application, microtiter plates were incubated at 28±1° C., 80±5% RH for 2 days. Larval mortality was then visually assessed.

[4] = system: tobacco budworm (Heliothis virescens); experiment: Action on tobacco budworm (Heliothis virescens), 96-well microtiter plate diet test; settings: 120 h, egg and larval mortality after 5 days, read-out: mortality in comparison with untreated controls
Procedure: For evaluating control of tobacco budworm (Helliothis virescens) the test unit consisted of 96-well-microtiter plates containing an insect diet and 15-25 H. virescens eggs.
The compounds were formulated using a solution containing 75% v/v water and 25% v/v DMSO. Different concentrations of formulated compounds were sprayed onto the insect diet at 10 μl, using a custom built micro atomizer, at two replications.
After application, microtiter plates were incubated at about 28±1° C. and about 80±5% relative humidity for 5 days. Egg and larval mortality was then visually assessed.

[5] = system: Southern Armyworm (Spodoptera eridania), 2nd Instar Larvae; experiment: Action on southern armyworm (Spodoptera eridania), 2nd instar larvae, sprayed lima bean plants; settings: 96 h, 2nd instar larvae on lima bean, 4 days after treatment, read-out: mortality in comparison with untreated controls
Procedure: The active compounds were formulated by a Tecan liquid handler in 100% cyclohexanone as a 10,000 ppm solution supplied in tubes. The 10,000 ppm solution was serially diluted in 100% cyclohexanone to make interim solutions. These served as stock solutions for which final dilutions were made by the Tecan in 50% acetone:50% water (v/v) into 10 or 20 ml glass vials. A nonionic surfactant (Kinetic®) was included in the solution at a volume of 0.01% (v/v). The vials were then inserted into an automated electrostatic sprayer equipped with an atomizing nozzle for application to plants/insects.
Lima bean plants (variety Sieva) were grown 2 plants to a pot and selected for treatment at the 1st true leaf stage. Test solutions were sprayed onto the foliage by an automated electrostatic plant sprayer equipped with an atomizing spray nozzle. The plants were dried in the sprayer fume hood and then removed from the sprayer. Each pot was placed into perforated plastic bags with a zip closure. About 10 to 11 armyworm larvae were placed into the bag and the bags zipped closed. Test plants were maintained in a growth room at about 250C and about 20-40% relative humidity for 4 days, avoiding direct exposure to fluorescent light (24 hour photoperiod) to prevent trapping of heat inside the bags. Mortality and reduced feeding were assessed 4 days after treatment, compared to untreated control plants.

[6] = system: boll weevil (Anthonomus grandis); experiment: Action on boll weevil (Anthonomus grandis), 96-well microtiter plate diet test; settings: 120 h, egg and larval mortality after 5 days, read-out: mortality in comparison with untreated controls
Procedure: For evaluating control of boll weevil (Anthonomus grandis) the test unit consisted of 96-well-microtiter plates containing an insect diet and 5-10 A. grandis eggs.
The compounds were formulated using a solution containing 75% v/v water and 25% v/v DMSO. Different concentrations of formulated compounds were sprayed onto the insect diet at 5 μl, using a custom built micro atomizer, at two replications.
After application, microtiter plates were incubated at about 25±1° C. and about 75±5% relative humidity for 5 days. Egg and larval mortality was then visually assessed.

SMILES | mortality at 500 ppm [1] | mortality at 500 ppm [2] | mortality at 800 ppm [3] | mortality at 800 ppm [4] | mortality at 300 ppm [5] | mortality at 800 ppm [6]
CC(/C=N/NC(=S)Nc1ccccc1C(C)C)=C\c1cnc(Nc2ccc(OC(F)(F)F)cc2)nc1 [Compound C-1, 1-(2-isopropylphenyl)-3-[(E)-[(E)-2-methyl-3-[2-[4-(trifluoromethoxy)anilino]pyrimidin-5-yl]prop-2-enylidene]amino]thiourea] | ≥ 75% | ≥ 75% | ≥ 75% | ≥ 75% | ≥ 75% | ≥ 75%
CC(/C=N/NC(=S)Nc1c(C)cccc1C)=C\c1cnc(Nc2ccc(OC(F)(F)F)cc2)nc1 [Compound C-2, 1-(2,6-dimethylphenyl)-3-[(E)-[(E)-2-methyl-3-[2-[4-(trifluoromethoxy)anilino]pyrimidin-5-yl]prop-2-enylidene]amino]thiourea] | ≥ 75% |  | ≥ 75% | ≥ 75% | ≥ 75% | ≥ 75%
CC(C=N/N=C1\SCC(=O)N1c1c(C)cccc1C)=Cc1cnc(Nc2ccc(OC(F)(F)F)cc2)nc1 [Compound C-4, (2Z)-3-(2,6-dimethylphenyl)-2-[(2-methyl-3-[2-[4-(trifluoromethoxy)anilino]pyrimidin-5-yl]prop-2-enylidene]hydrazono]thiazolidin-4-one] | ≥ 75% |  | ≥ 75% | ≥ 75% | ≥ 75% | ≥ 75%
CC(C)c1ccccc1N1C(=O)CS/C1=N\N=C\C(=O)N(C)c1cnc(N(C)c2ccc(OC(F)(F)F)cc2)nc1 [Compound C-10, (2E)-2-[(Z)-[3-(2-isopropylphenyl)-4-oxo-thiazolidin-2-ylidene]hydrazono]-N-methyl-N-[2-[N-methyl-4-(trifluoromethoxy)anilino]pyrimidin-5-yl]acetamide] | ≥ 75% |  |  | ≥ 75% | ≥ 75% | 
CC(C)c1ccccc1N1C(=O)CS/C1=N\N=C\C(=O)Nc1cnc(N(C)c2ccc(OC(F)(F)F)cc2)nc1 [Compound C-11, (2E)-2-[(Z)-[3-(2-isopropylphenyl)-4-oxo-thiazolidin-2-ylidene]hydrazono]-N-[2-[N-methyl-4-(trifluoromethoxy)anilino]pyrimidin-5-yl]acetamide] | ≥ 75% |  |  | ≥ 75% | ≥ 75% | 
CC(C)c1ccccc1NC(=S)N/N=C/C(=O)Nc1cnc(N(C)c2ccc(OC(F)(F)F)cc2)nc1 [Compound C-13, (2E)-2-[(2-isopropylphenyl)carbamothioylhydrazono]-N-[2-[N-methyl-4-(trifluoromethoxy)anilino]pyrimidin-5-yl]acetamide] | ≥ 75% |  |  | ≥ 75% | ≥ 75% | 
CC(C)c1ccccc1N1CC(=O)N(/N=C/C=C/c2cnc(N(C)c3ccc(OC(F)(F)F)cc3)nc2)C1=O [Compound C-14, 1-(2-isopropylphenyl)-3-[(E)-[(E)-3-[2-[N-methyl-4-(trifluoromethoxy)anilino]pyrimidin-5-yl]prop-2-enylidene]amino]imidazolidine-2,4-dione] | ≥ 75% | ≥ 75% |  | ≥ 75% |  | ≥ 75%
CC(C)c1ccccc1NC(=S)N/N=C/COc1cnc(N(C)c2ccc(OC(F)(F)F)cc2)nc1 [Compound C-18, 1-(2-isopropylphenyl)-3-[(E)-2-[2-[N-methyl-4-(trifluoromethoxy)anilino]pyrimidin-5-yl]oxyethylideneamino]thiourea] | ≥ 75% |  |  |  | ≥ 75% | 
CC(C)c1ccccc1N1C(=O)CS/C1=N\N=C\COc1cnc(N(C)c2ccc(OC(F)(F)F)cc2)nc1 [Compound C-19, (2Z)-3-(2-isopropylphenyl)-2-[(E)-2-[2-[N-methyl-4-(trifluoromethoxy)anilino]pyrimidin-5-yl]oxyethylidenehydrazono]thiazolidin-4-one] | ≥ 75% |  |  |  | ≥ 75% | 
CC(/C=N/NC(=S)Nc1ccccc1C(C)C)Oc1cnc(N(C)c2ccc(OC(F)(F)F)cc2)nc1 (stereo not shown) [Compound C-20, 1-(2-isopropylphenyl)-3-[(E)-2-[2-[N-methyl-4-(trifluoromethoxy)anilino]pyrimidin-5-yl]oxypropylideneamino]thiourea] | ≥ 75% |  |  |  |  | 
CC(/C=N/N=C1\SCC(=O)N1c1ccccc1C(C)C)Oc1cnc(N(C)c2ccc(OC(F)(F)F)cc2)nc1 (stereo not shown) [Compound C-21, (2Z)-3-(2-isopropylphenyl)-2-[(E)-2-[2-[N-methyl-4-(trifluoromethoxy)anilino]pyrimidin-5-yl]oxypropylidenehydrazono]thiazolidin-4-one] | ≥ 75% |  |  |  |  | 
Cc1nc(N(C)c2ccc(OC(F)(F)F)cc2)ncc1CC(C)/C=N/N=C1\SCC(=O)N1c1ccccc1C(C)C (stereo not shown) [Compound C-24, (2Z)-3-(2-isopropylphenyl)-2-[(E)-[2-methyl-3-[4-methyl-2-[N-methyl-4-(trifluoromethoxy)anilino]pyrimidin-5-yl]propylidene]hydrazono]thiazolidin-4-one] | ≥ 75% |  |  | ≥ 75% |  | 
CC(/C=N/N=C1\SCC(=O)N1c1ccccc1C(C)C)Oc1ccc(N(C)c2ccc(OC(F)(F)F)cc2)nn1 (stereo not shown) [Compound C-28, (2Z)-3-(2-isopropylphenyl)-2-[(E)-2-[6-[N-methyl-4-(trifluoromethoxy)anilino]pyridazin-3-yl]oxypropylidenehydrazono]thiazolidin-4-one] | ≥ 75% |  |  |  |  | 
CC(C)c1ccccc1N1C(=O)CS/C1=N\N=C\COc1ccc(N(C)c2ccc(OC(F)(F)F)cc2)nn1 [Compound C-29, (2Z)-3-(2-isopropylphenyl)-2-[(E)-2-[6-[N-methyl-4-(trifluoromethoxy)anilino]pyridazin-3-yl]oxyethylidenehydrazono]thiazolidin-4-one] | ≥ 75% |  |  |  |  | 
Cc1cc(N(C)c2ccc(OC(F)(F)F)cc2)nc(C)c1OC/C=N/NC(=S)Nc1ccccc1C(C)C [Compound C-30, 1-[(E)-2-[[2,4-dimethyl-6-[N-methyl-4-(trifluoromethoxy)anilino]-3-pyridyl]oxy]ethylideneamino]-3-(2-isopropylphenyl)thiourea] | ≥ 75% |  |  | ≥ 75% |  | 
Cc1cc(N(C)c2ccc(OC(F)(F)F)cc2)nc(C)c1OC/C=N/N=C1\SCC(=O)N1c1ccccc1C(C)C [Compound C-31, (2Z)-2-[(E)-2-[[2,4-dimethyl-6-[N-methyl-4-(trifluoromethoxy)anilino]-3-pyridyl]oxy]ethylidenehydrazono]-3-(2-isopropylphenyl)thiazolidin-4-one] | ≥ 75% |  | ≥ 75% | ≥ 75% | ≥ 75% | ≥ 75%

Source: US20200077658A1, “Pesticidal Compounds” (BASF SE, priority 2016, published 2020)
